Data set [1] has as its system Leukemia L1210. Nature of the data set: Activity against Leukemia L1210, oral, increase in life span of mice. Particulars: for ED (maximum ILS) / ED30: Mus musculus, L1210, oral once a day for 5 successive days; for ED (maximum ILS): daily dosage giving maximum increase of life span, read-out: O.D. (optimum dosage); for ED30: daily dosage increasing average survival days by 30%, read-out: ILS30; for Survivors after 60 days / Max. ILS % / Therapeutic ratio TR: oral; for Survivors after 60 days: 6-membered group; for Max. ILS %: 60-day observation, versus control; for Therapeutic ratio TR: O.D./ILS30. It is filed as in vivo, female mice (BDF1 family). The gist of the method:
(§1)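 Female BDF1 mice (20 to 23 g; 6 per group) were implanted intraperitoneally with 1×10^5 L1210 cells, then dosed ip or orally once daily for 5 days starting 24 h later. Survival was followed over 60 days, and ILS% was derived from mean survival days versus untreated controls.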

The nature of data set [2]: Acute toxicity (LD50, Behrens-Karber method). The data set is classed as in vivo, ICR mice. The conditions noted are these: mouse, in vivo, ip, mortality during 30 days. As to the method: Test compounds, dissolved or suspended in 0.5% aqueous CMC, were each intraperitoneally administered to ICR mice in a dose of 0.1 ml per 10 g body weight. LD50 (mg/kg) value of each test compound was calculated from the mortality of mice during 30 days by the Behrens-Karber method.

The subject of data set [3] is Leukemia L1210. Kind of data set: Activity against Leukemia L1210, intraperitoneal, increase in life span of mice. Particulars: for ED (maximum ILS) / ED30: Mus musculus, L1210, ip, ip once a day for 5 successive days; for ED (maximum ILS): daily dosage giving maximum increase of life span, read-out: O.D. (optimum dosage); for ED30: daily dosage increasing average survival days by 30%, read-out: ILS30; for Survivors after 60 days / Max. ILS % / Therapeutic ratio TR: ip; for Survivors after 60 days: 6-membered group; for Max. ILS %: 60-day observation, versus control; for Therapeutic ratio TR: O.D./ILS30. It is filed as in vivo, female mice (BDF1 family). The gist of the method:
as §1

Data set [4] can be described thus: Diuretic activity, acute sodium loaded mouse screening test. It is filed as in vivo, male mice. Particulars: 50 mg/kg oral in 1% saline; for Cl^- / K^+ / Na^+: urine. The protocol: The diuretic activity of the compounds of this invention was assayed by the diuresis screening test referred to as "acute sodium loaded mouse". This test was carried out by the following method.
The acute sodium loaded mouse screening test was carried out by using a 10-membered group of male mice (each weighing 18 to 24 g). Test compounds were incorporated in 1% saline (NaCl) solution and orally administered in a volume of 10 ml/kg. The mice were placed in metabolic cages. Each treated group consisted of 10-members. Five members were placed in one cage. Tests were conducted by oral administrations of (A) 1% saline (NaCl) solution to the control group and (B) 1% saline (NaCl) solution containing a test compound according to this invention.
The determination was carried out for sodium, potassium, and chlorine in each pooled urine sample. The determination of sodium and potassium was carried out by flame photometer. Chlorine was determined by chloride analysis apparatus. The analytical values of sodium, potassium, and chlorine were shown with an average mg equivalent (m Eq)/Kg/5 hours, and the diuretic activity was shown with an average urine volume (ml)/Kg/5 hours.

For another data set, the system named is Ehrlich acites carcinoma. Kind of data set: Growth-inhibiting effect against Ehrlich acites carcinoma. The data set is classed as in vivo, male mice. Particulars: Mus musculus, Ehrlich, 120 h, 5 days; for response vs control in vivo at 25 mg/kg: 25 mg/kg/day ip; for response vs control in vivo at 100 mg/kg: 100 mg/kg/day ip. The gist of the method:
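Male mice (groups of 6) implanted intraperitoneally with 1×10^7 Ehrlich ascites cells; compounds in 1% Nikkol HCO-60 given i.p. once daily for 5 days starting 24 hrs post-implantation. Total packed cell volume measured at day 7; T/C% vs untreated group, scored - (100-66), + (65-41), ++ (40-11), +++ (10-0).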

Like-named read-outs stand apart in the source and are kept apart here.

On to `COCCN(C[C@H]1O[C@H](OCC(C)C)[C@@H](O)[C@@H](O)[C@@H]1O)C(=O)N(CCCl)N=O` [Compound 135, 3-(2-methoxyethyl)-3-(isobutyl α-D-mannopyranose-6-yl)-1-(2-chloroethyl)-1-nitrosourea], for which, in the data set with Leukemia L1210 [1], the ED (maximum ILS) came out at 240 mg/kg, the ED30 worked out at 9.92 mg/kg, the “Survivors after 60 days” value is reported as 6/6 and the “Max. ILS %” value is reported as > 700%. For the same compound, the “Therapeutic ratio TR” value in the data set with Leukemia L1210 [1] turned out to be 24.2. In data set [2], this compound displayed an LD50 at 720 h of 620 mg/kg. Besides, in the data set with Leukemia L1210 [3], the ED (maximum ILS) stood at 200 mg/kg, the ED30 worked out at 2.92 mg/kg, the “Survivors after 60 days” value was 6/6 and the “Max. ILS %” value is > 700%. Moreover, the “Therapeutic ratio TR” value in the data set on Leukemia L1210 [3] came out at 68.5. Moreover, in data set [4], the Urine volume was found to be 9.7 ml/kg/5 hrs, the “Cl^-” value is 0.8 mEq/kg/5 hrs, the “K^+” value came to 0.9 mEq/kg/5 hrs and the “Na^+” value is reported as 0.7 mEq/kg/5 hrs. In addition, in the data set on Ehrlich acites carcinoma (read-out: Activity), the response vs control in vivo at 25 mg/kg fell in the range of 0 to 10% and the response vs control in vivo at 100 mg/kg lay within 0 to 10%. In the data set on Ehrlich acites carcinoma (read-out: T/C %), the response vs control in vivo at 25 mg/kg was 0% and the response vs control in vivo at 100 mg/kg was 0%.

For `COCCN(C[C@H]1O[C@H](OC2CCCCC2)[C@H](O)[C@@H](O)[C@@H]1O)C(=O)N(CCCl)N=O` [Compound 39, 3-(2-methoxyethyl)-3-(cyclohexyl α-D-glucopyranose-6-yl)-1-(2-chloroethyl)-1-nitrosourea], in the data set on Leukemia L1210 [1], the ED (maximum ILS) was 220 mg/kg, the ED30 amounted to 7.43 mg/kg, the “Survivors after 60 days” value is 5/6 and the “Max. ILS %” value is listed as > 635%. Further, the “Therapeutic ratio TR” value in the data set with Leukemia L1210 [1] is recorded as 29.6. The 50% lethal dose (LD50) at 720 h in data set [2] worked out at 510 mg/kg. In the data set on Leukemia L1210 [3], the ED (maximum ILS) was 170 mg/kg, the ED30 was 2.47 mg/kg, the “Survivors after 60 days” value was 6/6 and the “Max. ILS %” value was > 700%. For the same compound, the “Therapeutic ratio TR” value with Leukemia L1210 [3] is 68.8. In data set [4], the Urine volume is 9.2 ml/kg/5 hrs, the “Cl^-” value was found to be 0.7 mEq/kg/5 hrs, the “K^+” value came to 0.8 mEq/kg/5 hrs and the “Na^+” value worked out at 0.6 mEq/kg/5 hrs. Besides, in the data set with Ehrlich acites carcinoma (read-out: Activity), the response vs control in vivo at 25 mg/kg is 0 to 10% and the response vs control in vivo at 100 mg/kg was in the range of 0 to 10%. For the same compound, in the data set with Ehrlich acites carcinoma (read-out: T/C %), the response vs control in vivo at 25 mg/kg came to 0% and the response vs control in vivo at 100 mg/kg was found to be 0%.

As for `CC(C)CO[C@H]1O[C@H](CN(CC2CCCO2)C(=O)N(CCCl)N=O)[C@@H](O)[C@H](O)[C@H]1O` (stereo partly drawn) [Compound 23, 3-tetrahydrofurfuryl-3-(isobutyl α-D-glucopyranose-6-yl)-1-(2-chloroethyl)-1-nitrosourea], in the data set on Leukemia L1210 [1], the ED (maximum ILS) came out at 250 mg/kg, the ED30 worked out at 8.74 mg/kg, the “Survivors after 60 days” value is 5/6 and the “Max. ILS %” value is given as > 625%. Besides, the “Therapeutic ratio TR” value with Leukemia L1210 [1] is 28.6. Further, the LD50 at 720 h in data set [2] came to 620 mg/kg. In the data set on Leukemia L1210 [3], the ED (maximum ILS) was 200 mg/kg, the ED30 stood at 3 mg/kg, the “Survivors after 60 days” value is 5/6 and the “Max. ILS %” value is > 630%. Further, the “Therapeutic ratio TR” value with Leukemia L1210 [3] is recorded as 66.7. In addition, in data set [4], the Urine volume is reported as 10.2 ml/kg/5 hrs, the “Cl^-” value came to 0.8 mEq/kg/5 hrs, the “K^+” value is 1.0 mEq/kg/5 hrs and the “Na^+” value was 0.7 mEq/kg/5 hrs. In the data set with Ehrlich acites carcinoma (read-out: Activity), the response vs control in vivo at 25 mg/kg was in the range of 0 to 10% and the response vs control in vivo at 100 mg/kg fell in the range of 0 to 10%. Further, in the data set with Ehrlich acites carcinoma (read-out: T/C %), the response vs control in vivo at 25 mg/kg came out at 0% and the response vs control in vivo at 100 mg/kg came out at 0%.

`COCC(C)N(C[C@H]1O[C@H](OCC(C)C)[C@H](O)[C@@H](O)[C@H]1O)C(=O)N(CCCl)N=O` (stereo partly drawn) [Compound 110, 3-(1-methyl-2-methoxyethyl)-3-(isobutyl α-D-galactopyranose-6-yl)-1-(2-chloroethyl)-1-nitrosourea] returned an LD50 at 720 h in data set [2] of 680 mg/kg. In the data set on Leukemia L1210 [3], the ED (maximum ILS) stood at 200 mg/kg, the ED30 is 3.69 mg/kg, the “Survivors after 60 days” value is recorded as 4/6 and the “Max. ILS %” value was > 435%. The “Therapeutic ratio TR” value in the data set with Leukemia L1210 [3] is reported as 54.2. Besides, in data set [4], the Urine volume stood at 8.8 ml/kg/5 hrs, the “Cl^-” value is on record as 0.6 mEq/kg/5 hrs, the “K^+” value is given as 0.8 mEq/kg/5 hrs and the “Na^+” value turned out to be 0.5 mEq/kg/5 hrs. Further, in the data set with Ehrlich acites carcinoma (read-out: Activity), the response vs control in vivo at 25 mg/kg lay in the range of 0 to 10% and the response vs control in vivo at 100 mg/kg was 0 to 10%. For the same compound, in the data set with Ehrlich acites carcinoma (read-out: T/C %), the response vs control in vivo at 25 mg/kg was 0% and the response vs control in vivo at 100 mg/kg was 0%.

Take `COC(C)CO[C@H]1O[C@H](CN(CC2CCCO2)C(=O)N(CCCl)N=O)[C@H](O)[C@H](O)[C@H]1O` (stereo partly drawn) [Compound 117, 3-tetrahydrofurfuryl-3-(2-methoxy-n-propyl α-D-galactopyranose-6-yl)-1-(2-chloroethyl)-1-nitrosourea]: in data set [2], the LD50 at 720 h was 610 mg/kg. Further, in the data set with Leukemia L1210 [3], the ED (maximum ILS) was 200 mg/kg, the ED30 was 3.3 mg/kg, the “Survivors after 60 days” value is 6/6 and the “Max. ILS %” value is > 700%. For the same compound, the “Therapeutic ratio TR” value in the data set with Leukemia L1210 [3] is recorded as 60.6. Besides, in data set [4], the Urine volume was 8.4 ml/kg/5 hrs, the “Cl^-” value was determined as 0.7 mEq/kg/5 hrs, the “K^+” value came to 0.9 mEq/kg/5 hrs and the “Na^+” value is recorded as 0.5 mEq/kg/5 hrs. Also, in the data set with Ehrlich acites carcinoma (read-out: Activity), the response vs control in vivo at 25 mg/kg was in the range of 0 to 10% and the response vs control in vivo at 100 mg/kg was in the range of 0 to 10%. Also, in the data set on Ehrlich acites carcinoma (read-out: T/C %), the response vs control in vivo at 25 mg/kg was 0% and the response vs control in vivo at 100 mg/kg is 0%.

The values are drawn from patent US4593090A, “Novel nitrosourea compounds, method for preparing same, and pharmaceutical composition containing same” (Gogo Kimura, priority 1981, dated 1986).
